Data from ChEMBL document CHEMBL2401627, “Synthesis of some novel chalcones, flavanones and flavones and evaluation of their anti-inflammatory activity” (Eur J Med Chem, 2013).

How the values were obtained:
[1] = test system: Rattus norvegicus; test: Antiinflammatory activity in Wistar rat assessed as inhibition of carrageenan-induced hind paw oedema at 20 mg/kg, po administered 30 mins before carrageenan challenge measured after 5 hrs by plethysmometer relative to control; format: functional
[2] = test system: Rattus norvegicus; test: Antiinflammatory activity in Wistar rat assessed as inhibition of carrageenan-induced hind paw oedema at 20 mg/kg, po administered 30 mins before carrageenan challenge measured after 3 hrs by plethysmometer relative to control; format: functional
[3] = test system: Rattus norvegicus; test: Gastrointestinal toxicity in Wistar rat assessed as ulcerogenic index at 60 mg/kg, po after 6 hrs relative to control; format: organism-based; set-up: dose 60 mg/kg, route oral; conditions: in vivo

Structure (SMILES) | inhibition in vivo at 20 mg/kg [1] | inhibition in vivo at 20 mg/kg [2] | UI [3]
COc1cc(C)c(Cl)c(C)c1C(=O)/C=C/c1ccccc1[N+](=O)[O-] | 66.7% | 63.6% | 
Cc1cc2c(c(C)c1Cl)C(=O)CC(c1ccccc1)O2 (stereo unspecified) | 27.7% | 43.3% | 
COc1ccc(C2CC(=O)c3c(cc(C)c(Cl)c3C)O2)cc1 (stereo unspecified) | 70% | 51.1% | 
Cc1cc2c(c(C)c1Cl)C(=O)CC(c1ccc(Cl)cc1)O2 (stereo unspecified) | 70% | 37.8% | 
Cc1cc2c(c(C)c1Cl)C(=O)CC(c1ccccc1Cl)O2 (stereo unspecified) | 56% | 22.2% | 
COc1ccc(C2CC(=O)c3c(cc(C)c(Cl)c3C)O2)cc1OC (stereo unspecified) | 41.7% | 48.5% | 
COc1cc(C2CC(=O)c3c(cc(C)c(Cl)c3C)O2)cc(OC)c1OC (stereo unspecified) | 44.4% | 48.5% | 
Cc1cc2c(c(C)c1Cl)C(=O)CC(c1cccc(O)c1)O2 (stereo unspecified) | 44.4% | 46.4% | 
Cc1cc2c(c(C)c1Cl)C(=O)CC(c1ccccc1O)O2 (stereo unspecified) | 75% | 58.8% | 
Cc1cc2c(c(C)c1Cl)C(=O)CC(c1cccc([N+](=O)[O-])c1)O2 (stereo unspecified) | 51.4% | 53.6% | 
Cc1cc2c(c(C)c1Cl)C(=O)CC(c1ccc(N(C)C)cc1)O2 (stereo unspecified) | 81% | 82% | 0 mm
COc1cc(C2CC(=O)c3c(cc(C)c(Cl)c3C)O2)ccc1O (stereo unspecified) | 66% | 44.4% | 
Cc1cc2oc(-c3ccccc3)cc(=O)c2c(C)c1Cl | 16.2% | 26.3% | 
COc1ccc(-c2cc(=O)c3c(C)c(Cl)c(C)cc3o2)cc1 | 28.6% | 58% | 
Cc1cc2oc(-c3ccc(Cl)cc3)cc(=O)c2c(C)c1Cl | 22.9% | 26.1% | 
Cc1cc2oc(-c3ccccc3Cl)cc(=O)c2c(C)c1Cl | 57.1% | 36.8% | 
COc1ccc(-c2cc(=O)c3c(C)c(Cl)c(C)cc3o2)cc1OC | 22.9% | 43.1% | 
COc1cc(-c2cc(=O)c3c(C)c(Cl)c(C)cc3o2)cc(OC)c1OC | 73.3% | 68.4% | 0 mm
COc1ccc2c(c1)c(CC(=O)O)c(C)n2C(=O)c1ccc(Cl)cc1 [INDOMETHACIN] | 86% | 67% | 1.5 mm
